Experimental data as given in patent US20080045537A1, “Chemical Compounds” (priority 2004, published 2008).
Where two headings read alike, the source gives them in different places.

How the values were obtained:
Type in all cases: cell-based
human CXCR4 = target: T1, human CXCR4 (Homo sapiens, UniProt P61073); experiment: Functional FLIPR assay (block of SDF-1 alpha induced [Ca2+]i change); conditions: HEK-293 cells with human CXCR4 BacMam and Gqi5 BacMam; antagonism of SDF-1 alpha; read-out: Functional assay (pIC50) (converted)
T1 construct: expressed in transfected cells; host or cells: HEK-293 cells (stably expressing human macrophage scavenging receptor) transduced with human CXCR4 BacMam and Gqi5 BacMam baculoviruses
Protocol: Human embryonic kidney (HEK-293) cells were maintained and harvested as described above. Cells were plated in 96-well, black clear bottom, poly-lysine coated plates at a concentration of 40,000 cells per well in a final volume of 100 ul containing human CXCR4BacMam (MOI=25) and Gqi5 BacMam (MOI=12.5). The cells were incubated at 37° C., 5% CO2, 95% humidity for 24 h to allow for protein expression.
After the required incubation time the cells were washed once with 50 ul of fresh serum-free DMEM/F12 media containing probenicid. 50 ul of dye solution was then added to the cells (Calcium Plus Assay Kit Dye; Molecular Devices) was dissolved in 200 ml of the above probenicid/BSA containing media and incubated for 1 h. Cell plates were transferred to a Fluorometric Imaging Plate Reader (FLIPR). Upon addition the effect of the compounds on the change in [Ca^2+]i was examined to determine if the compounds were agonists or antagonists (ability to block SDF-1 alpha activity) at the CXCR4 receptor. IC50 values are determined and pKb values are calculated using the Leff and Dougall equation: KB=IC50/((2+([agonist]/EC50ˆb)ˆ1/b−1) Where IC50 is that defined by the antagonist concentration-response curve [agonist] is the EC80 concentration of agonist used EC50 is that defined by the agonist concentration-response curve b is the slope of the agonist concentration-response curve.

[1] = test system: HIV-1 IIIB (T-tropic, CXCR4 utilizing); experiment: HOS HIV-1 infectivity assay
Outline: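 HOS hCXCR4/hCCR5/hCD4/pHIV-LTR-luc cells, DMEM 2% FCS, 24 h preculture; cpd 1 h pre-virus; HIV-1 (PBL-grown) ~2 million RLU/well; 96 h, 37 °C. Readout: Steady-Glo luciferase (infected), CellTiter-Glo (no virus).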

[2] = Compound cytotoxicity in the absence of virus addition (CellTiter-Glo); conditions: human; non-infected HOS cultures; read-out: Cytotox (pIC50) (converted)
Protocol: Compounds were profiled against two HIV-1 viruses, the M-tropic (CCR5 utilizing) Ba-L strain and the T-tropic (CXCR4 utilizing) IIIB strain. Both viruses were propagated in human peripheral blood lymphocytes. Compounds were tested for there ability to block infection of the HOS cell line (expressing hCXCR4/hCCR5/hCD4/pHIV-LTR-luciferase) by either HIV-1 Ba-L or HIV-1 IIIB. Compound cytotoxicity was also examined in the absence of virus addition.
HOS cells (expressing hCXCR4/hCCR5/hCD4/pHIV-LTR-luciferase) were harvested and diluted in Dulbeccos modified Eagles media supplemented with 2% FCS and non-essential amino acid to a concentration of 60,000 cells/ml. The cells were plated into 96-well plates (100 ul per well) and the plates were placed in a tissue culture incubator (37° C.; 5% CO2/95% air) for a period of 24 h.
Subsequently, 50 ul of the desired drug solution (4 times the final concentration) was added to each well and the plates were returned to the tissue culture incubator (37° C.; 5% CO2/95% air) for 1 h. Following this incubation 50 ul of diluted virus was added to each well (approximately 2 million RLU per well of virus). The plates were returned to the tissue culture incubator (37° C.; 5% CO2/95% air) and were incubated for a further 96 h.
Following this incubation the endpoint for the virally infected cultures was quantified following addition of Steady-Glo Luciferase assay system reagent (Promega, Madison, Wis.). Cell viability or non-infected cultures was measured using a CellTiter-Glo luminescent cell viability assay system (Promega, Madison, Wis.). All luminescent readouts are performed on a Topcount luminescence detector (Packard, Meridien, Conn.).

[3] = test system: HIV-1 gp160 (from the HXB2 HIV strain); experiment: Cell/cell fusion assay (HEK-293 expressing HIV-1 tat, rev, gp160 with HOS hCXCR4/hCCR5/hCD4/pHIV-LTR-luciferase cells); conditions: Human immunodeficiency virus 1, HXB2, HEK293, 24 h, read-out: Fusion assay (pIC50), luciferase readout after 24 h (converted)
Excerpt: The complete coding sequences of HIV-1 tat (GenBank Accession No. X07861) and rev (GenBank Accession No. M34378) were cloned into pcDNA3.1 expression vectors containing G418 and hygromycin resistance genes, respectively. The complete coding sequence of the HIV-1 (HXB2 strain) gp160 envelope gene (nucleotide bases 6225-8795 of GenBank Accession No. K03455) was cloned into plasmid pCRII-TOPO. The three HIV genes were additionally inserted into the baculovirus shuttle vector, pFastBacMam1, under the transcriptional control of the CMV promoter. A construction of the pHIV-I LTR containing mutated NFkB sequences linked to the luciferase reporter gene was prepared by digesting pcDNA3.1, containing the G418 resistance gene, with Nru I and Bam HI to remove the CMV promoter. LTR-luc was then cloned into the Nru I/Bam HI sites of the plasmid vector. Plasmid preparations were performed after the plasmids were amplified in Escherichia coli strain DH5-alpha. The fidelity of the inserted sequences was confirmed by double-strand nucleotide sequencing using an ABI Prism Model 377 automated sequencer.
Recombinant BacMam baculoviruses were constructed from pFastBacMam shuttle plasmids by using the bacterial cell-based Bac-to-Bac system. Viruses were propagated in Sf9 (Spodoptera frugiperda) cells cultured in Hink's TNM-FH Insect media supplemented with 10% (v/v) fetal bovine serum and 0.1% (v/v) pluronic F-68 according to established protocols.
Human osteosarcoma (HOS) cells that naturally express human CXCR4 were transfected with human CCR5, human CD4 and the pHIV-LTR-luciferase plasmid using FuGENE 6 transfection reagent. Single cells were isolated and grown under selection condition in order to generate a stable HOS (hCXCR4/hCCR5/hCD4/pHIV-LTR-luciferase) clonal cell line. The cells were maintained in Dulbeccos modified Eagles media supplemented with 10% fetal calf serum (FCS), G418 (400 ug/ml), puromycin (1 ug/ml), mycophenolic acid (40 ug/ml), xanthine (250 ug/ml) and hypoxanthine (13.5 ug/ml) to maintain a selection pressure for cells expressing the LTR-luciferase, hCCR5 and hCD4, respectively. Human embryonic kidney (HEK-293) cells stably transfected to express the human macrophage scavenging receptor (Class A, type 1; GenBank Accession No. D90187), were maintained in DMEM/F-12 media (1:1) supplemented with 10% FCS and 1.5 ug/ml puromycin. The expression of this receptor by the HEK-293 cells enhances their ability to stick to tissue culture treated plasticware.
HEK-293 cells were harvested using enzyme-free cell dissociation buffer. The cells were resuspended in DMEM/F-12 media supplemented with 10% FCS and 1.5 ug/ml and counted. Tranductions were performed by direct addition of BacMam baculovirus containing insect cell media to cells. The cells were simultaneously transduced with BacMam baculovirus expressing HIV-1 tat, HIV-1 rev and HIV-1 gp160 (from the HXB2 HIV strain). Routinely an MOI of 10 of each virus was added to the media containing the cells. 2 mM butyric acid was also added to the cells at this stage to increase protein expression in transduced cells. The cells were subsequently mixed and seeded into a flask at 30 million cells per T225. The cells were incubated at 37° C., 5% CO2, 95% humidity for 24 h to allow for protein expression.
HEK and HOS cells were harvested in DMEM/F-12 media containing 2% FCS and DMEM media containing 2% FCS, respectively, with no selection agents added. Compounds were plated as 1 ul spots in 100% DMSO on a 96-well CulturPlate plates. HOS cells (50 ul) were added first to the wells, followed immediately by the HEK cells (50 ul). The final concentration of each cell type was 20,000 cells per well. Following these additions, the cells were returned to a tissue culture incubator (37° C.; 5% CO2/95% air) for an additional 24 h.
Following the 24 h incubation, total cellular luciferase activity was measured using the LucLite Plus assay kit (Packard, Meridien, Conn.). […]

[4] = Human immunodeficiency virus 1, IIIB, as determined by the infectivity assay, strain not stated in Table 2, read-out: Activity Level
[5] = Human immunodeficiency virus 1, HIV-1 IIIB, HOS cells, 96 h, luciferase readout, read-out: HOS (3B)
[6] = as determined by the infectivity assay, strain not stated in Table 2, read-out: Activity Level

T1 sequence (P61073 whole entry): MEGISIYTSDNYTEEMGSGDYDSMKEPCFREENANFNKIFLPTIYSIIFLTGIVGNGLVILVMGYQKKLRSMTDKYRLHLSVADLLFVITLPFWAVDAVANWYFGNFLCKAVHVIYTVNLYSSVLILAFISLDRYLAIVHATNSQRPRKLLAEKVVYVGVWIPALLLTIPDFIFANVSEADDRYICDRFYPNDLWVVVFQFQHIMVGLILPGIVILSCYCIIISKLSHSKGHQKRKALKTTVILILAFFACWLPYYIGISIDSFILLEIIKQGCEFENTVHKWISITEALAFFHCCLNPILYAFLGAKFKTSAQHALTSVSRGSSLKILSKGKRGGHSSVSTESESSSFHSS

CN(Cc1nc2cccc(C(=O)NCCc3cnc[nH]3)c2[nH]1)C1CCCc2cccnc21 (centres unmarked) [Example 23, N-[2-(1H-Imidazol-4-yl)ethyl]-2-{[methyl(5,6,7,8-tetrahydro-8-quinolinyl)amino]methyl}-1H-benzimidazole-4-carboxamide]
IC50 (human CXCR4): 13.5 nM | IC50 [1, 4]: < 100 nM | IC50 [1, 5]: 18 nM | IC50 at 96 h [2]: > 100000 nM | IC50 [3]: 158 nM

CN(Cc1nc2c(C(=O)NCCc3cn(C)cn3)cccc2[nH]1)C1CCCc2cccnc21 (centres unmarked) [Example 24, N-[2-(1-Methyl-1H-imidazol-4-yl)ethyl]-2-{[methyl(5,6,7,8-tetrahydro-8-quinolinyl)amino]methyl}-1H-benzimidazole-4-carboxamide]
IC50 (human CXCR4): 12.3 nM | IC50 [1, 4]: < 100 nM | IC50 [1, 5]: 22 nM | IC50 at 96 h [2]: > 100000 nM | IC50 [3]: 145 nM

CN(Cc1nc2c(C(N)=O)cccc2[nH]1)C1CCCc2cccnc21 (centres unmarked) [Example 25, 2-{[Methyl(5,6,7,8-tetrahydro-8-quinolinyl)amino]methyl}-1H-benzimidazole-4-carboxamide]
IC50 (human CXCR4): 174 nM | IC50 [1, 4]: 100 to 500 nM | IC50 [1, 5]: 143 nM | IC50 at 96 h [2]: > 100000 nM | IC50 [3]: 275 nM

CN(Cc1nc2c(C(=O)NCCN)cccc2[nH]1)C1CCCc2cccnc21 (centres unmarked) [Example 26, N-(2-Aminoethyl)-2-{[methyl(5,6,7,8-tetrahydro-8-quinolinyl)amino]methyl}-1H-benzimidazole-4-carboxamide]
IC50 (human CXCR4): 20.9 nM | IC50 [1, 4]: < 100 nM | IC50 [1, 5]: 27 nM | IC50 at 96 h [2]: > 100000 nM | IC50 [3]: 49 nM

CN(Cc1nc2c(C(=O)NCCCN3CCCC3)cccc2[nH]1)C1CCCc2cccnc21 (centres unmarked) [Example 28, 2-{[Methyl(5,6,7,8-tetrahydro-8-quinolinyl)amino]methyl}-N-[3-(1-pyrrolidinyl)propyl]-1H-benzimidazole-4-carboxamide]
IC50 (human CXCR4): 57.5 nM | IC50 [1, 4]: < 100 nM | IC50 [1, 5]: 44 nM | IC50 at 96 h [2]: > 100000 nM | IC50 [3]: 148 nM

CN(C)CCCNC(=O)c1cccc2[nH]c(CN(C)C3CCCc4cccnc43)nc12 (centres unmarked) [Example 29, N-[3-(Dimethylamino)propyl]-2-{[methyl(5,6,7,8-tetrahydro-8-quinolinyl)amino]methyl}-1H-benzimidazole-4-carboxamide]
IC50 (human CXCR4): 132 nM | IC50 [1, 4]: < 100 nM | IC50 [1, 5]: 81 nM | IC50 at 96 h [2]: > 100000 nM | IC50 [3]: 257 nM

CN(Cc1nc2c(C(=O)N3CCC(N)CC3)cccc2[nH]1)C1CCCc2cccnc21 (centres unmarked) [Example 30, N-({4-[(4-Amino-1-piperidinyl)carbonyl]-1H-benzimidazol-2-yl}methyl)-N-methyl-5,6,7,8-tetrahydro-8-quinolinamine]
IC50 (human CXCR4): 2000 nM | IC50 [1, 5]: 75 nM | IC50 [1, 6]: < 100 nM | IC50 at 96 h [2]: > 100000 nM | IC50 [3]: 407 nM

CN(Cc1nc2c(C(=O)N3CCC(N)C3)cccc2[nH]1)C1CCCc2cccnc21 (centres unmarked) [Example 31, N-({4-[(3-Amino-1-pyrrolidinyl)carbonyl]-1H-benzimidazol-2-yl}methyl)-N-methyl-5,6,7,8-tetrahydro-8-quinolinamine]
IC50 (human CXCR4): 12.3 nM | IC50 [1, 5]: 22 nM | IC50 [1, 6]: < 100 nM | IC50 at 96 h [2]: > 100000 nM | IC50 [3]: 49 nM

CN(Cc1nc2c(CNCCc3c[nH]cn3)cccc2[nH]1)C1CCCc2cccnc21 (centres unmarked) [Example 32, N-{[4-({[2-(1H-Imidazol-4-yl)ethyl]amino}methyl)-1H-benzimidazol-2-yl]methyl}-N-methyl-5,6,7,8-tetrahydro-8-quinolinamine]
IC50 (human CXCR4): 66.1 nM | IC50 [1, 4]: < 100 nM | IC50 [1, 5]: 45 nM | IC50 at 96 h [2]: 7590 nM | IC50 [3]: 85.1 nM

CN(Cc1nc2c(CN3CCNCC3)cccc2[nH]1)C1CCCc2cccnc21 (centres unmarked) [Example 33, N-Methyl-N-{[4-(1-piperazinylmethyl)-1H-benzimidazol-2-yl]methyl}-5,6,7,8-tetrahydro-8-quinolinamine]
IC50 (human CXCR4): 15.1 nM | IC50 [1, 4]: < 100 nM | IC50 [1, 5]: 13 nM | IC50 at 96 h [2]: > 100000 nM | IC50 [3]: 162 nM
